Laboratory results taken from publication PMC7822874, “Chemoprotective antimalarials identified through quantitative high-throughput screening of Plasmodium blood and liver stage parasites” (Scientific Reports, 2021).
Where “and” joins values, the source holds several entries; their conditions need not be identical. Identical values can stand only once. Like-named read-outs stand apart in the source and are kept apart here.

Tests used:
[1] = test system: T1, Plasmodium falciparum Dd2-attB (parental line), asexual blood stages; experiment: microbe, parasite or virus in culture; parameters: species or system P. falciparum Dd2-attB in human erythrocytes; SYBR Green-I proliferation assay, Dd2-attB parental line, asexual blood stages; settings: Plasmodium falciparum, DD2, Erythrocyte, 72 h, read-out: Calculated / Average Log AC50 (M), mean of replicates, 72 h (converted)
T1 construct: Dd2-attB, the isogenic parental line

[2] = test system: T1, Plasmodium falciparum Dd2-attB (parental line), asexual blood stages; experiment: microbe, parasite or virus in culture; parameters: replicate k of 3 (each line is one of three independent assays; the three lines of one compound and parasite line follow each other); settings: n = 1; for Individual replicates / Log AC50 (M): 72 h; for AC50: Plasmodium falciparum, DD2, 72 h, read-out: Individual replicates / Log AC50 (converted)
Outline: (§1)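 We compare activity in parasites carrying fumarate-using yeast DHODH with that in the parental line; mETC or parasite DHODH inhibitors are bypassed by this enzyme. Data come from three independent assays, analysed by two-sided Student's t-tests.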

[3] = test system: T2, Plasmodium falciparum Dd2-attB-ScDHODH (transgenic line expressing yeast DHODH), asexual blood stages; experiment: organism not typed; parameters: replicate k of 3 (each line is one of three independent assays; the three lines of one compound and parasite line follow each other)
T2 construct: Dd2-attB-ScDHODH, the transgenic line that expresses yeast DHODH
Outline: as §1

[4] = 72 h; n = 1; read-out: Individual replicates / Log AC50 (converted)

SMILES	AC50 [1] [M]	Individual replicates / Log AC50 (M) [2]	AC50 [2] [µM]	Individual replicates / Log AC50 (M) ([3]; 72 h; n = 1)	AC50 [3, 4] [µM]	Individual replicates / Log AC50 (M) ([3]; 72 h, n = 1)
Oc1ccc(COCc2ccccc2)c2cccnc12 [MLS000034722-02]	1.13e-05	-4.8986 Log AC50 (M)	8.94	-4.8486 Log AC50 (M)	14.2	
O=C(NC1=CC(=O)c2ccccc2C1=O)c1ccccc1 [MLS002693850-02]	3.56e-06	-5.5986 Log AC50 (M) (2×) and -5.1486 Log AC50 (M)				-5.5486 Log AC50 (M) and -5.0986 Log AC50 (M)
Oc1ccc(CNc2ccccc2F)c2cccnc12 [NCGC00031503-02]	1.22e-05	-4.9986 Log AC50 (M)	17.8		20	-4.7486 Log AC50 (M) and -4.7986 Log AC50 (M)
Cc1ccccc1Nc1c(-c2ccccc2O)nc2sccn12 [NCGC00105919-03]	1.08e-05	-4.8986 Log AC50 (M) and -5.0986 Log AC50 (M)	12.6		8.94	-4.8486 Log AC50 (M) and -5.0486 Log AC50 (M)
Cc1cccc(C)c1Nc1c(-c2ccccn2)nc2ccc(Cl)cn12 [NCGC00106608-03]	1.42e-05	-4.7986 Log AC50 (M) and -4.9486 Log AC50 (M)	15.9	-4.7986 Log AC50 (M)	15.9	
CCc1cccc(C)c1Nc1c(-c2ccc(N(C)C)cc2)nc2ncccn12 [NCGC00107648-03]	1.93e-05		15.9			
Cc1ccc(NC(=O)C(N[S+](=O)([O-])c2ccc3c(c2)CCC(=O)N3)c2ccccc2)cc1C (centres unmarked) [NCGC00110290-01]	1.59e-05		17.8		8.94	
COc1ccc(CNC(=O)c2nc([S+](=O)([O-])Cc3ccccc3)ncc2Cl)cc1 [NCGC00117170-03]	1.31e-05		8.94			
CCOc1ccc(-c2[nH]c3c(C#N)cnn3c2NC2CCCCC2)cc1 [NCGC00119971-02]	1.85e-05		15.9			
CC1Cc2cc([S+](=O)([O-])NCc3ccc(N(C)C)cc3)ccc2N1C(=O)C1CCC1 (centres unmarked) [NCGC00124605-03]	1.47e-05				15.9	
COc1ccc(NCc2cccn2-c2nnc(N3CCC(C)CC3)s2)c(OC)c1 [NCGC00127038-02]	1.26e-05	-4.9986 Log AC50 (M)	17.8		14.2	-4.7486 Log AC50 (M) and -4.7986 Log AC50 (M)
COc1ccc(-n2ncc(C(=O)N3CCc4ccccc4C3)c2C2CCN(C(=O)OC(C)(C)C)CC2)cc1 [NCGC00127123-02]	7.97e-06	-5.2486 Log AC50 (M) and -4.9986 Log AC50 (M)	8.94		14.2	-4.7986 Log AC50 (M) and -4.8486 Log AC50 (M)
CCCCN1CCCc2cc(CN(CCCN3CCOCC3)C(=O)Nc3ccc(OCC)cc3)ccc21 [NCGC00140593-02]	1.36e-05	-4.9986 Log AC50 (M) and -4.7986 Log AC50 (M)	15.9		17.8	-4.8486 Log AC50 (M) and -4.7986 Log AC50 (M)
CN(Cc1ccco1)Cc1ccc(O)c2ncccc12 [NCGC00183374-01]	1.47e-05		8.94		12.6	-4.7986 Log AC50 (M)
Oc1ccc(COC2CCN(Cc3ccccc3)C2)c2cccnc12 (centres unmarked) [NCGC00183382-01]	7.97e-06	-5.2986 Log AC50 (M) and -5.1986 Log AC50 (M) and -4.7986 Log AC50 (M)				
O=C(Nc1ccc(O)c2ncccc12)c1ccccc1F [NCGC00184884-01]	7.38e-06	-5.2486 Log AC50 (M) and -4.9486 Log AC50 (M)	6.33			-4.8486 Log AC50 (M) and -5.0986 Log AC50 (M)
O=[S+]([O-])(Nc1ccc(O)c2ncccc12)c1ccccc1F [NCGC00184887-02]	1e-05	-4.8986 Log AC50 (M) and -5.0486 Log AC50 (M) (2×)				-4.9486 Log AC50 (M) and -4.8486 Log AC50 (M)
NC(=O)c1ccc(O)c2ncccc12 [NCGC00184888-01]	1.59e-05		14.2		20	
O=[N+]([O-])c1ccccc1NCc1ccc(O)c2ncccc12 [NCGC00184896-01]	9.65e-06	-4.7986 Log AC50 (M) and -5.0986 Log AC50 (M) and -5.1486 Log AC50 (M)			12.6	-5.0486 Log AC50 (M)
Oc1ccc(/C=C/c2c(F)cccc2F)c2cccnc12 [NCGC00184904-01]	1e-05	-5.0986 Log AC50 (M) and -5.0486 Log AC50 (M)	14.2			-4.7486 Log AC50 (M) and -4.7986 Log AC50 (M)
Oc1ccc(CCc2ccccc2F)c2cccnc12 [NCGC00184905-01]	1.31e-05	-5.1986 Log AC50 (M) and -4.7486 Log AC50 (M)			15.9	
CN(C)c1cnc2c(O)ccc([S+](=O)([O-])Nc3ccccc3F)c2c1 [NCGC00189501-01]	9.29e-06	-5.0986 Log AC50 (M)	12.6		14.2	-4.9986 Log AC50 (M) and -4.7986 Log AC50 (M)
COc1cccc(NCc2ccc(O)c3ncccc23)n1 [NCGC00241024-01]	1.13e-05	-4.8986 Log AC50 (M) and -5.0486 Log AC50 (M)	12.6		12.6	-4.8486 Log AC50 (M)

SMILES	AC50 [1] [M]	Individual replicates / Log AC50 (M) [2]	AC50 [2] [µM]	Individual replicates / Log AC50 (M) ([3]; 72 h; n = 1)	AC50 [3, 4] [µM]	Individual replicates / Log AC50 (M) ([3]; 72 h, n = 1)
Oc1ccc(CNc2nccc3ccccc23)c2cccnc12 [NCGC00241025-01]	7.67e-06	-5.2486 Log AC50 (M) and -4.8986 Log AC50 (M) and -5.1986 Log AC50 (M)				-5.2486 Log AC50 (M) and -4.7486 Log AC50 (M)
Oc1ccc(CNc2cc(C(F)(F)F)ccn2)c2cccnc12 [NCGC00241027-01]	1e-05	-5.0986 Log AC50 (M) and -5.0486 Log AC50 (M)	14.2		7.1	-4.8486 Log AC50 (M)
Oc1ccc(CNc2cc(Br)ccn2)c2cccnc12 [NCGC00241030-01]	6.58e-06	-5.2486 Log AC50 (M) and -5.0486 Log AC50 (M)	5.64			-5.2486 Log AC50 (M) and -5.1986 Log AC50 (M) and -4.8986 Log AC50 (M)
COC(=O)c1ccc(O)c2ncc(N3CCN(C)CC3)cc12 [NCGC00241034-01]	6.09e-06	-5.2986 Log AC50 (M) and -5.0486 Log AC50 (M)	5.03			-5.2486 Log AC50 (M) and -5.2986 Log AC50 (M) and -4.8486 Log AC50 (M)
O=C(O)c1ccc(O)c2ncc(N3CCOCC3)cc12 [NCGC00241036-03]	1.65e-05	-4.8486 Log AC50 (M)				
O=C(O)c1ccc(O)c2ncc(NC3CCNCC3)cc12 [NCGC00241037-01]	1.72e-05		14.2			
O=C(O)c1ccc(O)c2ncc(N3CCN(CCc4ccncc4)CC3)cc12 [NCGC00247761-01]	1e-05		8.94			
O=C(O)c1ccc(O)c2ncc(N3CCC(N4CCOCC4)CC3)cc12 [NCGC00249380-01]	1.47e-05				17.8	
Cc1cccc(CN2CCN(c3cnc4c(O)ccc(C(=O)O)c4c3)CC2)c1 [NCGC00249381-01]	1.78e-05		15.9			
O=C(O)CCNc1cc(N2CCc3ccccc3CC2)nc(-c2cccnc2)n1 [NCGC00351549-01]	2.08e-05				15.9	
COC(=O)c1ccnc(-c2cn(C)cn2)c1NC(=O)Cc1ccc(Cl)cc1 [NCGC00420786-01]	1.42e-05	-5.0486 Log AC50 (M) and -4.7486 Log AC50 (M)	17.8			
Cn1ccnc1CCOC(c1cc2nccc(C(=O)O)c2[nH]1)c1ccccc1Cl (centres unmarked) [NCGC00421835-01]	1.85e-05		15.9			
O=C(NC1CCN(c2cc(-c3ccc(Cl)cc3)n[nH]2)C1)c1ccccc1 (centres unmarked) [NCGC00437928-03]	1.85e-05				12.6	
CC(OCCN1CCCCC1)c1cnn(-c2cc(C(=O)O)ccn2)c1-c1cccc(-c2ccccc2)c1 (centres unmarked) [NCGC00481287-01]	1.36e-05		15.9			
CC(C)(C)c1cc(N2CCC(NC(=O)c3ccccc3)C2)n[nH]1 (centres unmarked) [NCGC00488845-01]	2.25e-05					
O=C(N[C@H]1CCN(c2cc(-c3ccc(Cl)cc3)[nH]n2)C1)c1ccccc1 [NCGC00489097-01]	1.19e-05		6.33			
O=C(N[C@H]1CC(=O)N(c2cc(-c3ccccc3)[nH]n2)C1=O)c1ccccc1 [NCGC00489852-01]	7.1e-10					
O=C(NC1CCN(C(=O)c2cc(-c3ccccc3)n[nH]2)C1)c1ccccc1 (centres unmarked) [NCGC00492307-01]	1.59e-05				14.2	
Cc1nn2c(c1-c1ccnn1C(C)C)N(CC1CC1)CCC2 [NCGC00499721-01]	1.59e-05					
Cc1cccc(CN2CCCn3nc(C)c(-c4ccnn4C(C)C)c32)n1 [NCGC00499722-01]	1.65e-07					
Cc1nn2c(c1-c1ccnn1C(C)C)N(Cc1ccccc1)CCC2 [NCGC00500003-01]	1.31e-05		8.94			
CC(C)c1c(-c2cnn(C(C)(C)C)c2)n2ncc(C#N)c2[nH]c1=O [NCGC00500019-01]	1.53e-05					
